Here are results for 22 molecules from ChEMBL document CHEMBL5136982, “Structure-Based Design of Potent, Selective, and Orally Bioavailable VPS34 Kinase Inhibitors” (J Med Chem, 2022).

A short description of data set [1]: Lipophilicity, logD of compound at pH 7.4 by shake flask method. It counts as physicochemical. The settings on record: buffer.
Data set [2] in a line: Microsomal stability in human liver microsome assessed as clearance at 1.0 uM preincubated for 5 mins followed by NADPH addition measured upto 60 mins by LC-MS/MS analysis. It counts as ADME. Conditions: liver microsomes, time < 65 min. Background: Liver microsomes are a subcellular fraction often used to study metabolism.
Data set [3] in a line: Microsomal stability in rat liver microsome assessed as clearance at 1.0 uM preincubated for 5 mins followed by NADPH addition measured upto 60 mins by LC-MS/MS analysis. It counts as ADME. Conditions: liver microsomes, time < 65 min.
A short description of data set [4]: Oral bioavailability in Sprague-Dawley rat at 2 mg/kg measured upto 8 hrs by LC-MS/MS analysis. It counts as ADME, organism-based. The settings on record: in vivo.
Data set [5] can be described thus: Unbound clearance in Sprague-Dawley rat at 0.5 mg/kg, iv measured upto 8 hrs by LC-MS/MS analysis. The settings on record: in vivo. It counts as ADME, organism-based.
A short description of data set [6]: Plasma clearance in Sprague-Dawley rat at 0.5 mg/kg, iv measured upto 8 hrs by LC-MS/MS analysis. It counts as ADME, organism-based.
Data set [7] is described as follows: Volume of distribution at steady state in Sprague-Dawley rat at […] measured upto 8 hrs by LC-MS/MS analysis. It counts as ADME, organism-based. Conditions: in vivo.
A short description of data set [8]: Half life in Sprague-Dawley rat at 2 mg/kg, po measured upto 8 hrs by LC-MS/MS analysis. It counts as ADME, organism-based. The settings on record: in vivo.
Data set [9] can be described thus: AUC in Sprague-Dawley rat at 0.5 mg/kg, iv measured upto 8 hrs by LC-MS/MS analysis. The settings on record: in vivo. The arrangement: dose 0.5 mg/kg, time < 8 hrs, route iv. It counts as ADME, organism-based.

SMILES strings stand for the structures.

With `C[C@@H]1COCCN1c1cc2n(n1)[C@H](C1CC1)C(C)(C)NC2=O`, in [1], the logD (as a rule, lipophilicity at a set pH, counting ionised and neutral species) was 1.5. Further, the CLhep predicted at 1 µM in data set [2] is below 3.9 mL/min/kg; in data set [3], below 6.1 mL/min/kg.
`O=C(Nc1cc(-n2cnc3ccccc32)ccn1)C1CC1` gave a logD in [1] of 2.8. The CLhep predicted at 1 µM in [2] was 19 mL/min/kg; in data set [3] it was 34 mL/min/kg.
Take `CC(C)[C@@H]1CNC(=O)c2cc(N3CCOCC3)nn21`: in [1], the logD was 0.7. Besides, the results for the CLhep predicted at 1 µM in [2] and in data set [3] were below 3.9 mL/min/kg and below 6.1 mL/min/kg, respectively.
The molecule `CC(C)[C@@H]1CNC(=O)c2cc(-c3ccnc(NC(=O)C4CC4)c3)nn21` yielded a logD in data set [1] of 2.4. For the same molecule, the CLhep predicted at 1 µM is below 3.9 mL/min/kg in [2] and 22 mL/min/kg in data set [3].
Turning to `C[C@@H]1COCCN1c1cc2n(n1)[C@H](C(C)(C)C)CNC2=O`, in data set [1], the logD turned out to be 1.4. For the same molecule, the CLhep predicted at 1 µM in data set [2] is 4.7 mL/min/kg; in data set [3], 24 mL/min/kg.
The molecule `NC(=O)c1ccccc1Nc1ccnc(NC(=O)C2CC2)c1` came in with a logD in data set [1] of 1.8. For the same molecule, the CLhep predicted at 1 µM was 5 mL/min/kg in [2] and 15 mL/min/kg in [3].
With `O=C(Nc1cc(-c2ccn3ccnc3c2)ccn1)C1CC1`, in data set [1], the logD was found to be 2.1. For the same molecule, the CLhep predicted at 1 µM in data set [2] was 17 mL/min/kg; in data set [3], 40 mL/min/kg.
`O=C(Nc1cc2cc(-c3nncn3-c3ccccc3Cl)ccc2cn1)C1CC1F` (configuration not stated) gave a logD in data set [1] of 3.1. Moreover, the values for the CLhep predicted at 1 µM in data set [2] and in [3] were 12 mL/min/kg and 7.2 mL/min/kg, respectively.
For `CC(C)[C@@H]1CNC(=O)c2cc(N3CCOC[C@H]3C)nn21`, in [4], the bioavailability (usually the share of a dose that reaches the circulation, judged against a reference dose that is usually intravenous) was determined as 68%. For the same molecule, in data set [1], the logD worked out at 1.2. The figures for the CLhep predicted at 1 µM in [2] and in [3] were below 3.9 mL/min/kg and 12 mL/min/kg, respectively. Also, in [5], the CL free was 19 mL/min/kg.
The molecule `C[C@@H]1COCCN1c1cc2n(n1)[C@H](C1CCC1)CNC2=O` returned a logD in data set [1] of 1.5. The CLhep predicted at 1 µM was below 3.9 mL/min/kg in data set [2] and 23 mL/min/kg in data set [3].
The like results for `C[C@@H]1CNC(=O)c2cc(-c3ccnc(NC(=O)C4CC4)c3)nn21` were, in that order, 1.7, below 3.9 mL/min/kg and below 6.1 mL/min/kg.
`C[C@@H]1COCCN1c1cc2n(n1)[C@H](C(F)(F)F)CNC2=O` gave a logD in [1] of 0.8. In addition, the CLhep predicted at 1 µM in [2] was below 3.9 mL/min/kg; in data set [3] it was 8.5 mL/min/kg.
`Cc1cnc(NC(=O)C2CC2)cc1-c1cc2n(n1)[C@H](C(C)C)CNC2=O` displayed a logD in [1] of 2.5. Further, the CLhep predicted at 1 µM in data set [2] is 11 mL/min/kg; in data set [3], 25 mL/min/kg.
The like results for `C[C@@H]1COCCN1c1cc2n(n1)[C@H](C1CC1)C1(CC1)NC2=O` were, in that order, 1.6, below 3.9 mL/min/kg and 11 mL/min/kg.
For the molecule `C[C@@H]1COCCN1c1cc2n(n1)[C@H](C1CC1)[C@H](C1CC1)NC2=O`, the logD in [1] came to 1.7. Also, the CLhep predicted at 1 µM in data set [2] is below 3.9 mL/min/kg; in data set [3] it was below 6.1 mL/min/kg.
Take `C[C@@H]1COCCN1c1cc2n(n1)[C@H](C1CC1)CNC2=O`: the logD in [1] came to 1. For the same molecule, the figures for the CLhep predicted at 1 µM in data set [2] and in [3] were below 3.9 mL/min/kg and 11 mL/min/kg, respectively.
In the case of `C[C@@H]1COCCN1c1cc2n(n1)C[C@H](C(F)(F)F)NC2=O`, in data set [1], the logD amounted to 1.1. The CLhep predicted at 1 µM in [2] is below 3.9 mL/min/kg; in data set [3], below 6.1 mL/min/kg.
In data set [1], `C[C@@H]1COCCN1c1cc2n(n1)[C@H](C1CCCC1)CNC2=O` displayed a logD of 1.6. Further, the CLhep predicted at 1 µM in data set [2] was 9.1 mL/min/kg; in data set [3], 28 mL/min/kg.
`Cn1ccc(-c2ccnc(NC(=O)C3CC3)c2)cc1=O` registered a logD in data set [1] of 1.3. Moreover, the CLhep predicted at 1 µM in data set [2] was 6.4 mL/min/kg; in data set [3], below 6.1 mL/min/kg.
On to `C[C@@H]1NC(=O)c2cc(N3CCOC[C@H]3C)nn2[C@@H]1C1CC1`, for which, in [1], the logD was 1.3. For the same molecule, the figures for the CLhep predicted at 1 µM in data set [2] and in data set [3] were below 3.9 mL/min/kg and 7.8 mL/min/kg, respectively.
Consider `C[C@@H]1COCCN1c1cc2n(n1)[C@@H]1CCC[C@@H]1NC2=O`, for which the bioavailability in [4] was found to be 61%. The molecule also registered a logD in data set [1] of 1. For the same molecule, the CLhep predicted at 1 µM was below 3.9 mL/min/kg in data set [2] and below 6.1 mL/min/kg in data set [3]. Also, the clearance (commonly the rate of elimination divided by the concentration) in [6] stood at 7.8 mL/min/kg. In [7], this molecule came in with a Vdss of 0.83 L/kg. Further, in data set [8], the half-life (in general, the time needed for the level to fall by half in the phase considered) is 1.4 h. Also, in data set [9], the AUC (commonly concentration integrated over time) at 8 h came to 4 µM·h.
`C[C@@H]1COCCN1c1cc2n(n1)C(C(C)(C)O)CNC2=O` (single isomer, unassigned): the CLhep predicted at 1 µM in data set [2] is below 3.9 mL/min/kg; in data set [3], below 6.1 mL/min/kg.
